Data on 37 compounds can be found in paper PMC6937593, “Anti-metastatic Inhibitors of Lysyl Oxidase (LOX): Design and Structure–Activity Relationships” (Journal of Medicinal Chemistry, 2019).

Values joined by “and” are separate entries in the source; they are usually repeats but may differ in a detail not shown here. Identical values can stand only once. Counter-ions that a name gives are not always drawn. Like-named read-outs stand apart in the source and are kept apart here.

One data set concerns the target T1, LOX (Sus scrofa, UniProt P45845).
T1 construct: LOX enzyme was extracted from pig skin by the method of Shackleton and Hulmes; from tissue; host or cells: pig skin
T1 sequence (P45845 1-249): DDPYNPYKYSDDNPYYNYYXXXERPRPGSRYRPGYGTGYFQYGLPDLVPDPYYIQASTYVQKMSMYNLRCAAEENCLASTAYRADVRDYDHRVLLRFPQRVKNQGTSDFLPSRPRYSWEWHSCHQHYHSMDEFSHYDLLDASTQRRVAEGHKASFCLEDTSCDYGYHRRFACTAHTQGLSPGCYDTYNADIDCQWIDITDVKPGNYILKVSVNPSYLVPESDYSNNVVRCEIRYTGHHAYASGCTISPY
The data set is described as follows: LOX enzyme activity assay (HRP-coupled fluorescent, cadaverine substrate).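 On all read-outs here: LOX isolated from porcine skin, nine-point dilution series starting at 100 µM, 20 min preincubation with enzyme, BAPN serving as positive control.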 Format: biochemical, pig. The note with it: for fold more potent than HTS hit 2a (LOX IC50): vs 2a.

A short description of another data set: MLM stability assay. It counts as in vitro ADME, mouse. As to conditions: percentage of compound remaining after 30 min; 10 μM.
The next data set is described as follows: In vivo PK in mice. Also noted: species or system mouse. The note with it: mouse plasma, single oral gavage dose 50 mg/kg.
[1] abbreviates: n ≥ 2, n = 2: individual values, n > 2: geometric mean [95% CI], 20 min preincubation, read-out: LOX IC50.

Experimental for In vivo PK in mice: Female BALB/c or CD1 mice (Charles River Laboratories) at 6 weeks of age were used for the PK analyses. The mice were dosed orally by gavage (50 mg/kg in dimethyl sulfoxide (DMSO)/water 1:19 v/v; n = 21) or intravenously in the tail vein (10 mg/kg in DMSO/Tween20/saline 10:1:89 v/v/v; n = 24). […] Three mice were used per time point per route. They were placed under halothane or isoflurane anesthesia, and blood for plasma preparation was taken by terminal cardiac puncture into heparinized syringes. Plasma samples were snap-frozen in liquid nitrogen and then stored at −80 °C prior to analysis.
Experimental for LOX: LOX enzyme was extracted from pig skin by the method of Shackleton and Hulmes.[24] LOX catalytic activity was determined using a horseradish peroxidase (HRP)-coupled fluorescent assay previously described,[19] with cadaverine hydrochloride as a substrate, BAPN as positive control, and a preincubation time of 20 min with nine dilutions from a top concentration of 100 μM.
Experimental for MLM stability assay: Mouse liver microsomes (BALB/c) were purchased from Tebu-bio, and the assay was performed by methods previously described.[19] Inhibitors at 10 μM concentration incubated with the microsomes were assessed at 0, 15, and 30 min. Control samples containing no microsomes and no cofactors were also assessed at 0 and 30 min. Samples were extracted by protein precipitation and centrifugation for 20 min in a refrigerated centrifuge (4 °C) at 3700 rpm. The supernatant was analyzed by LCMS/MS for % metabolized over time.

For `NCc1ccc(S(=O)(=O)N2CCCCC2)s1` [2a, (5-(Piperidin-1-ylsulfonyl)thiophen-2-yl)methanamine], the IC50 (as a rule, the concentration that gives 50% inhibition) on LOX (high-throughput screen hit, read-out: mean IC50 (LOX, HTS hit)) is 19 µM; on LOX (setting [1]) it was 17 µM and 21 µM.
Turning to `CN(C)S(=O)(=O)c1ccc(CN)s1` [2b, 5-(Aminomethyl)-N,N-dimethylthiophene-2-sulfonamide], the IC50 on LOX (setting [1]) was 70 µM and 72 µM.
In the case of `CCNS(=O)(=O)c1ccc(CN)s1` [2c, 5-(Aminomethyl)-N-ethylthiophene-2-sulfonamide], on LOX (setting [1]), the IC50 was 27 µM and 31 µM.
Turning to `NCc1ccc(S(=O)(=O)N2CCC[C@H]2C(N)=O)s1` [2d, (S)-1-(5-(Aminomethyl)thiophen-2-ylsulfonyl)pyrrolidine-2-carboxamide], the IC50 at LOX (setting [1]) is 11 µM and 13 µM.
For `NCc1ccc(S(=O)(=O)N2CCC[C@H]2CO)s1` [2e, (S)-(1-(5-(Aminomethyl)thiophen-2-ylsulfonyl)pyrrolidin-2-yl)methanol], the concentration for half-maximal inhibition (IC50) on LOX (setting [1]) is 3.1 µM and 3.3 µM.
As for `NCc1ccc(S(=O)(=O)N2CCCC2c2ccccc2)s1` (stereo not drawn) [2f, (5-(2-Phenylpyrrolidin-1-ylsulfonyl)thiophen-2-yl)methanamine], the IC50 at LOX (setting [1]) was determined as 3.8 µM.
With `NCc1ccc(S(=O)(=O)N2CCc3ccccc32)s1` [2g, (5-(Indolin-1-ylsulfonyl)thiophen-2-yl)methanamine], the concentration for half-maximal inhibition (IC50) on LOX (setting [1]) is 1.9 µM. Moreover, the “fold more potent than HTS hit 2a (LOX IC50)” value at LOX is listed as approximately 10 fold.
With `NCc1ccc(S(=O)(=O)N2CCCc3ccccc32)s1` [2h, (5-(3,4-Dihydroquinolin-1(2H)-ylsulfonyl)thiophen-2-yl)methanamine], the IC50 at LOX (setting [1]) is 2.5 µM and 2.7 µM.
With `NCc1ccc(S(=O)(=O)N2CCOCC2)s1` [2i, (5-(Morpholinosulfonyl)thiophen-2-yl)methanamine], the IC50 at LOX (setting [1]) is 20 µM and 25 µM.
With `Cl.Cl.NCc1ccc(S(=O)(=O)N2CCCNCC2)s1` [2j, (5-(1,4-Diazepan-1-ylsulfonyl)thiophen-2-yl)methanamine Dihydrochloride], the 50% inhibitory concentration (IC50) at LOX (setting [1]) was 9.4 µM and 12.7 µM. Also, the “fold more potent than HTS hit 2a (LOX IC50)” value on LOX is recorded as approximately 2 fold.
With `CN1CCCN(S(=O)(=O)c2ccc(CN)s2)CC1` [2k, (5-(4-Methyl-1,4-diazepan-1-ylsulfonyl)thiophen-2-yl)methanamine], on LOX (setting [1]), the IC50 turned out to be 3.1 µM.
As for `CCNC(=O)N1CCCN(S(=O)(=O)c2ccc(CN)s2)CC1` [2l, 4-(5-(Aminomethyl)thiophen-2-ylsulfonyl)-N-ethyl-1,4-diazepane-1-carboxamide], the IC50 at LOX (setting [1]) stood at 2.1 µM.
`CS(=O)(=O)N1CCCN(S(=O)(=O)c2ccc(CN)s2)CC1` [2m, (5-(4-(Methylsulfonyl)-1,4-diazepan-1-ylsulfonyl)thiophen-2-yl)methanamine]: in “MLM stability assay”, the “MLM stability (%)” value turned out to be 37%. Moreover, the IC50 at LOX (setting [1]) came out at 0.93 µM.
On to `NCc1ccc(S(=O)(=O)c2ccc3ccccc3c2)s1` [3g, (5-(Naphthalen-2-ylsulfonyl)thiophen-2-yl)methanamine], for which, in the data set “In vivo PK in mice”, the “AUC(PO)” value turned out to be 4.2 µM·h and the concentration peaked (Cmax) at 15 µM. Besides, the “MLM stability (%)” value in “MLM stability assay” is 100%.
Consider `CS(=O)(=O)c1ccc(S(=O)(=O)c2ccc(CN)s2)cc1` [3i, (5-(4-(Methylsulfonyl)phenylsulfonyl)thiophen-2-yl)methanamine], for which, in the data set “MLM stability assay”, the “MLM stability (%)” value came out at 67%.
As to `NCc1ccc(Sc2ccccc2)s1` [4b, (5-(Phenylthio)thiophen-2-yl)methanamine Hydrochloride], the IC50 on LOX (setting [1]) was 14 µM and 27 µM.
Take `NCc1ccc(S(=O)(=O)NCc2ccccc2)s1` [4c, 5-(Aminomethyl)-N-benzylthiophene-2-sulfonamide]: the IC50 on LOX (setting [1]) amounted to 15 µM.
On to `NCc1ccc(C(=O)NCc2ccccc2)s1` [4d, 5-(Aminomethyl)-N-benzylthiophene-2-carboxamide], for which the half-inhibitory concentration (IC50) on LOX (setting [1]) was 20 µM and 25 µM.
On the same count and under the same terms, the value for `CS(=O)(=O)c1ccc(-c2ccc(CN)s2)cc1` [4e, (5-(4-(Methylsulfonyl)phenyl)thiophen-2-yl)methanamine Hydrochloride] was 13 µM.
With `Cl.Cl.NCc1ccc(S(=O)(=O)Cc2ccccc2)nc1` [5a, (6-(Benzylsulfonyl)pyridin-3-yl)methanamine Dihydrochloride], the IC50 on LOX (setting [1]) turned out to be 25 µM. In addition, the “fold weaker than aminomethylenethiophene counterpart 5b (LOX)” value at LOX (vs 5b) is approximately 10 fold.
In the case of `NCc1ccc(C(=O)NCc2ccccc2)o1` [5e, 5-(Aminomethyl)-N-benzylfuran-2-carboxamide], on LOX (setting [1]), the concentration for half-maximal inhibition (IC50) is 40 µM and 45 µM.
Consider `Cc1cc(CN)sc1S(=O)(=O)N1CCc2ccccc21` [5f, (5-(Indolin-1-ylsulfonyl)-4-methylthiophen-2-yl)methanamine], for which the half-inhibitory concentration (IC50) at LOX (setting [1]) is 12 µM and 13 µM.
In the case of `CNCc1ccc(S(=O)(=O)c2ccccc2)s1` [6a, N-Methyl-1-(5-(phenylsulfonyl)thiophen-2-yl)methanamine Hydrochloride], the IC50 on LOX (setting [1]) is more than 100 µM.
Turning to `CC(N)c1ccc(S(=O)(=O)c2ccccc2)s1` (stereo not drawn) [6b, 1-(5-(Phenylsulfonyl)thiophen-2-yl)ethanamine], on LOX (setting [1]), the 50% inhibitory concentration (IC50) is more than 100 µM.
Still for that read-out and setting: the value for `N#Cc1ccc(S(=O)(=O)c2ccccc2)s1` [6c, 5-(Phenylsulfonyl)thiophene-2-carbonitrile] was more than 100 µM.
On to `N=C(N)c1ccc(S(=O)(=O)c2ccccc2)s1` [6d, 5-(Phenylsulfonyl)thiophene-2-carboximidamide Hydrochloride], for which, on LOX (setting [1]), the IC50 is more than 100 µM.
For the compound `NC(=O)c1ccc(S(=O)(=O)c2ccccc2)s1` [6e, 5-(Phenylsulfonyl)thiophene-2-carboxamide], the IC50 at LOX (setting [1]) was more than 100 µM.
For `O=S(=O)(c1ccc2ccccc2c1)c1ccc(/C=N/O)s1` [6f, 5-(Naphthalen-2-ylsulfonyl)thiophene-2-carbaldehyde Oxime], the 50% inhibitory concentration (IC50) at LOX (setting [1]) is more than 100 µM.
For `NCc1sccc1S(=O)(=O)c1ccc2ccccc2c1` [7a, (3-(Naphthalen-2-ylsulfonyl)thiophen-2-yl)methanamine], at LOX, the “LOX inhibition (in words)” value is given as “no inhibitory activity”. At LOX (setting [1]), the IC50 is more than 100 µM.
In the same order, the values of `NCc1cscc1S(=O)(=O)c1ccc2ccccc2c1` [7b, (4-(Naphthalen-2-ylsulfonyl)thiophen-3-yl)methanamine] are “no inhibitory activity” and more than 100 µM.
In the case of `NCc1ccc(S(=O)(=O)c2cccc(S(=O)(=O)N3CCCC3)c2)s1` [8d, (5-((3-(Pyrrolidin-1-ylsulfonyl)phenyl)sulfonyl)thiophen-2-yl)methanamine], in “In vivo PK in mice”, the “AUC(PO)” value was found to be 0.22 µM·h and the highest level (Cmax) was 0.83 µM. For the same compound, the “MLM stability (%)” value in “MLM stability assay” is recorded as 59%.
As for `NCc1ccc(S(=O)(=O)c2cccc(S(=O)(=O)N3CCC[C@H]3CO)c2)s1` [8e, (S)-(1-((3-((5-(Aminomethyl)thiophen-2-yl)sulfonyl)phenyl)sulfonyl)pyrrolidin-2-yl)methanol], in “In vivo PK in mice”, the “AUC(PO)” value stood at 0.46 µM·h and the peak level (Cmax) was 1.5 µM. For the same compound, the “MLM stability (%)” value in the data set “MLM stability assay” is 63%.
As to `CC(=O)NCCS(=O)(=O)c1ccc(S(=O)(=O)c2ccc(CN)s2)cc1.Cl` [8j, N-(2-((4-((5-(Aminomethyl)thiophen-2-yl)sulfonyl)phenyl)sulfonyl)ethyl)-acetamide Hydrochloride], in “In vivo PK in mice”, the “AUC(PO)” value amounted to 0.36 µM·h and the highest level (Cmax) was 0.38 µM. The “MLM stability (%)” value in “MLM stability assay” is 91%.
For `CC(C)(C)c1cc(S(C)(=O)=O)cc(S(=O)(=O)c2ccc(CN)s2)c1` [9a, (5-((3-(tert-Butyl)-5-(methylsulfonyl)phenyl)sulfonyl)thiophen-2-yl)methanamine], in “In vivo PK in mice”, the “AUC(PO)” value was 6.5 µM·h and the Cmax – broadly, the peak of the concentration-time curve – was 16 µM. In the data set “MLM stability assay”, the “MLM stability (%)” value was determined as 68%.
In the same order, the values of `CC(C)(C)Oc1cc(S(C)(=O)=O)cc(S(=O)(=O)c2ccc(CN)s2)c1` [9b, (5-((3-(tert-Butoxy)-5-(methylsulfonyl)phenyl)sulfonyl)thiophen-2-yl)methanamine] are 2.3 µM·h, 6.3 µM and 67%.
As for `Cl.Cl.Cn1cc(-c2cc(S(=O)(=O)c3ccc(CN)s3)ccc2S(C)(=O)=O)cn1` [9j, (5-((3-(1-Methyl-1H-pyrazol-4-yl)-4-(methylsulfonyl)phenyl)sulfonyl)thiophen-2-yl)methanamine Dihydrochloride], in the data set “In vivo PK in mice”, the “AUC(PO)” value was found to be 2.8 µM·h and the peak concentration (Cmax) is 9.6 µM. The “MLM stability (%)” value in the data set “MLM stability assay” is reported as 90%.
For the compound `CS(=O)(=O)c1ccc(S(=O)(=O)c2ccc(CN)s2)cc1-c1ccccc1` [9k, (5-((6-(Methylsulfonyl)-[1,1′-biphenyl]-3-yl)sulfonyl)thiophen-2-yl)methanamine], in the data set “In vivo PK in mice”, the “AUC(PO)” value was found to be 1.4 µM·h and the concentration peaked (Cmax) at 1.6 µM. The “MLM stability (%)” value in the data set “MLM stability assay” was 41%.
